{"source": "ChEMBL document CHEMBL5370539", "about": "“Oxazole-4-carboxamide/butylated hydroxytoluene hybrids with GSK-3β inhibitory and neuroprotective activities against Alzheimer's disease” (Eur J Med Chem, 2023)", "key": {"PC-12 [1]": {"test_system": "PC-12", "assay": "Neuroprotective activity against rat PC12 cells assessed as decrease in H2O2-induced intracellular ROS production at 2.5 to 10 uM preincubated for 12 hrs followed by replacement with fresh media and H2O2 stimulation for 12 hrs by DCFH-DA staining based flow cytometry", "format": "functional, cell-based", "conditions": "dose 2.5-10 µM"}, "PC-12 [2]": {"test_system": "PC-12", "assay": "Anti-apoptotic activity against H2O2-induced apoptosis in rat PC12 cells assessed as dead cells at 2.5 uM preincubated for 12 hrs followed by replacement with fresh media and H2O2 stimulation for 12 hrs by Annexin-V/7-AAD staining based flow cytometry (Rvb=4.1%)", "format": "functional"}, "[3]": {"target": "T1, Glycogen synthase kinase-3 beta (Homo sapiens, UniProt P49841)", "assay": "Inhibition of human GSK-3beta overexpressed in human HEK293T cells assessed as decrease in Tau phosphorylation at t205 at 0.625 to 10 uM incubated for 24 hrs by Western blot analysis", "format": "cell-based", "conditions": "dose 0.625-10 µM"}, "PC-12 [4]": {"test_system": "PC-12", "assay": "Anti-apoptotic activity against H2O2-induced apoptosis in rat PC12 cells assessed as early apoptotic cells at 5 uM preincubated for 12 hrs followed by replacement with fresh media and H2O2 stimulation for 12 hrs by Annexin-V/7-AAD staining based flow cytometry (Rvb=0.8%)", "format": "functional"}, "PC12 [5]": {"test_system": "PC12", "assay": "Activation of Nrf2-ARE pathway in rat PC-12 cells assessed as increase in Nrf2 expression level in nucleus at 10 uM incubated for 3 hrs by Western blot analysis", "format": "cell-based", "conditions": "filed as activator"}, "PC-12 [6]": {"test_system": "PC-12", "assay": "Neuroprotective activity against rat PC12 cells assessed as decrease in H2O2-induced intracellular Ca2+ level at 5 uM preincubated for 12 hrs followed by replacement with fresh media and H2O2 stimulation for 12 hrs by Fluo-3 AM based flow cytometry relative to control", "format": "functional", "parameters": "scale not given: the % may be the effect or the level left"}, "PC12 [7]": {"test_system": "PC12", "assay": "Activation of Nrf2-ARE pathway in rat PC-12 cells assessed as increase in GCLM expression level at 2.5 to 10 uM incubated for 24 hrs by Western blot analysis", "format": "cell-based", "conditions": "filed as activator, dose 2.5-10 µM"}, "PC-12 [8]": {"test_system": "PC-12", "assay": "Neuroprotective activity against H2O2-induced cytotoxicity in rat PC12 cells assessed as increase in cell viability at 10 uM preincubated for 12 hrs followed by replacement with fresh media and H2O2 stimulation for 12 hrs by MTT assay", "format": "functional, cell-based"}, "PC-12 [9]": {"test_system": "PC-12", "assay": "Anti-apoptotic activity against H2O2-induced apoptosis in rat PC12 cells assessed as dead cells at 5 uM preincubated for 12 hrs followed by replacement with fresh media and H2O2 stimulation for 12 hrs by Annexin-V/7-AAD staining based flow cytometry (Rvb=4.1%)", "format": "functional"}, "[10]": {"assay": "Toxicity in okadaic acid-induced cognitive impairment ICR mouse model assessed as body weight change at 0.08 to 0.24 mg/kg, iv twice at 3days interval before and after okadaic acid stimulation measured upto 14 days", "format": "organism-based", "conditions": "in vivo, 336 h, dose 0.08-0.24 mg/kg, time < 14 day"}, "PC-12 [11]": {"test_system": "PC-12", "assay": "Anti-apoptotic activity against H2O2-induced apoptosis in rat PC12 cells assessed as early apoptotic cells at 2.5 uM preincubated for 12 hrs followed by replacement with fresh media and H2O2 stimulation for 12 hrs by Annexin-V/7-AAD staining based flow cytometry (Rvb=0.8%)", "format": "functional"}, "PC-12 [12]": {"test_system": "PC-12", "assay": "Anti-apoptotic activity against H2O2-induced apoptosis in rat PC12 cells assessed as early apoptotic cells at 10 uM preincubated for 12 hrs followed by replacement with fresh media and H2O2 stimulation for 12 hrs by Annexin-V/7-AAD staining based flow cytometry (Rvb=0.8%)", "format": "functional"}, "PC-12 [13]": {"test_system": "PC-12", "assay": "Neuroprotective activity against rat PC12 cells assessed as decrease in H2O2-induced mitochondrial membrane potential level at 10 uM preincubated for 12 hrs followed by replacement with fresh media and H2O2 stimulation for 12 hrs by JC-1 dye based flow cytometry (Rvb=95.3%)", "format": "functional", "parameters": "scale not given: the % may be the effect or the level left"}, "PC-12 [14]": {"test_system": "PC-12", "assay": "Neuroprotective activity against rat PC12 cells assessed as decrease in H2O2-induced mitochondrial membrane potential level at 5 uM preincubated for 12 hrs followed by replacement with fresh media and H2O2 stimulation for 12 hrs by JC-1 dye based flow cytometry (Rvb= 95.3%)", "format": "functional", "parameters": "scale not given: the % may be the effect or the level left"}, "L02": {"test_system": "L02", "assay": "Cytotoxicity against human L02 cells assessed as cell viability at 6.25 to 100 uM incubated for 24 hrs by MTT assay", "format": "toxicity, cell-based", "conditions": "l02, 24 h, dose 6.25-100 µM"}, "PC-12 [15]": {"test_system": "PC-12", "assay": "Anti-apoptotic activity against H2O2-induced apoptosis in rat PC12 cells assessed as late apoptotic cells at 2.5 uM preincubated for 12 hrs followed by replacement with fresh media and H2O2 stimulation for 12 hrs by Annexin-V/7-AAD staining based flow cytometry (Rvb=2.2 %)", "format": "functional"}, "PC12 [16]": {"test_system": "PC12", "assay": "Activation of Nrf2-ARE pathway in rat PC-12 cells assessed as increase in TrxR1 expression level at 2.5 to 10 uM incubated for 6 hrs by Western blot analysis", "format": "cell-based", "conditions": "filed as activator, dose 2.5-10 µM"}, "PC12 [17]": {"test_system": "PC12", "assay": "Activation of Nrf2-ARE pathway in rat PC-12 cells assessed as increase in HO-1 expression level at 2.5 to 10 uM incubated for 6 hrs by Western blot analysis", "format": "cell-based", "conditions": "filed as activator, dose 2.5-10 µM"}, "PC-12 [18]": {"test_system": "PC-12", "assay": "Anti-apoptotic activity against H2O2-induced apoptosis in rat PC12 cells assessed as late apoptotic cells at 10 uM preincubated for 12 hrs followed by replacement with fresh media and H2O2 stimulation for 12 hrs by Annexin-V/7-AAD staining based flow cytometry (Rvb=2.2 %)", "format": "functional"}, "PC-12 [19]": {"test_system": "PC-12", "assay": "Anti-apoptotic activity against H2O2-induced apoptosis in rat PC12 cells assessed as living cells at 5 uM preincubated for 12 hrs followed by replacement with fresh media and H2O2 stimulation for 12 hrs by Annexin-V/7-AAD staining based flow cytometry (Rvb=92.9%)", "format": "functional"}, "PC-12 [20]": {"test_system": "PC-12", "assay": "Anti-apoptotic activity against H2O2-induced apoptosis in rat PC12 cells assessed as dead cells at 10 uM preincubated for 12 hrs followed by replacement with fresh media and H2O2 stimulation for 12 hrs by Annexin-V/7-AAD staining based flow cytometry (Rvb=4.1%)", "format": "functional"}, "[21]": {"target": "T1, Glycogen synthase kinase-3 beta", "assay": "Inhibition of human GSK-3beta overexpressed in human HEK293T cells assessed as decrease in Tau phosphorylation at s396 at 0.625 to 10 uM incubated for 24 hrs by Western blot analysis", "format": "cell-based", "conditions": "dose 0.625-10 µM"}, "PC12 [22]": {"test_system": "PC12", "assay": "Activation of Nrf2-ARE pathway in rat PC-12 cells assessed as increase in Nrf2 expression level at 2.5 to 10 uM incubated for 12 hrs by Western blot analysis", "format": "cell-based", "conditions": "filed as activator, dose 2.5-10 µM"}, "[23]": {"target": "T1, Glycogen synthase kinase-3 beta", "assay": "Inhibition of recombinant human GSK-3beta using YRRAAVPPSPSLSRHSSPHQ(pS)EDEE as substrate preincubated for 15 mins followed by substrate addition and measured after 60 mins by Kinase-Glo luminescent kinase assay"}, "PC-12 [24]": {"test_system": "PC-12", "assay": "Neuroprotective activity against rat PC12 cells assessed as decrease in H2O2-induced intracellular Ca2+ level at 2.5 uM preincubated for 12 hrs followed by replacement with fresh media and H2O2 stimulation for 12 hrs by Fluo-3 AM based flow cytometry relative to control", "format": "functional", "parameters": "scale not given: the % may be the effect or the level left"}, "[25]": {"target": "T1, Glycogen synthase kinase-3 beta", "assay": "Inhibition of human GSK-3beta overexpressed in human HEK293T cells assessed as reduction in GSK-3beta expression level at 0.625 to 10 uM incubated for 24 hrs by Western blot analysis", "format": "cell-based", "conditions": "dose 0.625-10 µM"}, "PC-12 [26]": {"test_system": "PC-12", "assay": "Anti-apoptotic activity against H2O2-induced apoptosis in rat PC12 cells assessed as living cells at 2.5 uM preincubated for 12 hrs followed by replacement with fresh media and H2O2 stimulation for 12 hrs by Annexin-V/7-AAD staining based flow cytometry (Rvb=92.9%)", "format": "functional"}}, "note": "The source made the active and inactive calls. No cut-off for these calls is given here."}
{"smiles": "COc1ccc(-c2ocnc2C(=O)NCCCc2ccc(NC(=O)/C=C/c3cc(C(C)(C)C)c(O)c(C(C)(C)C)c3)cc2)cc1Cl", "values": [{"measurement": "Activity", "setting": "PC-12 [1]", "value": "Dose-Dependent Effect"}, {"measurement": "Activity", "setting": "PC-12 [2]", "value": 1.3, "unit": "%"}, {"measurement": "inhibition", "setting": "[3]", "value": "Dose-Dependent Effect"}, {"measurement": "Activity", "setting": "PC-12 [4]", "value": 1.5, "unit": "%"}, {"measurement": "Activity", "setting": "PC12 [5]", "value": "Active"}, {"measurement": "Activity", "setting": "PC-12 [6]", "value": 28.4, "unit": "%"}, {"measurement": "Activity", "setting": "PC12 [7]", "value": "Dose-Dependent Effect"}, {"measurement": "Activity", "setting": "PC-12 [8]", "value": "Active"}, {"measurement": "Activity", "setting": "PC-12 [9]", "value": 2.5, "unit": "%"}, {"measurement": "Activity", "setting": "[10]", "value": "Non-Toxic"}, {"measurement": "Activity", "setting": "PC-12 [11]", "value": 5.5, "unit": "%"}, {"measurement": "Activity", "setting": "PC-12 [12]", "value": 2, "unit": "%"}, {"measurement": "Activity", "setting": "PC-12 [13]", "value": 81.3, "unit": "%"}, {"measurement": "Activity", "setting": "PC-12 [14]", "value": 72.6, "unit": "%"}, {"measurement": "Activity", "setting": "L02", "value": "Non-Toxic"}, {"measurement": "Activity", "setting": "PC-12 [15]", "value": 16.4, "unit": "%"}, {"measurement": "Activity", "setting": "PC12 [16]", "value": "Dose-Dependent Effect"}, {"measurement": "Activity", "setting": "PC12 [17]", "value": "Dose-Dependent Effect"}, {"measurement": "Activity", "setting": "PC-12 [18]", "value": 6, "unit": "%"}, {"measurement": "Activity", "setting": "PC-12 [19]", "value": 93.1, "unit": "%"}, {"measurement": "Activity", "setting": "PC-12 [20]", "value": 1.3, "unit": "%"}, {"measurement": "inhibition", "setting": "[21]", "value": "Dose-Dependent Effect"}, {"measurement": "Activity", "setting": "PC12 [22]", "value": "Dose-Dependent Effect"}, {"measurement": "IC50", "setting": "[23]", "value": 0.25, "unit": "nM"}, {"measurement": "Activity", "setting": "PC-12 [24]", "value": 24.5, "unit": "%"}, {"measurement": "inhibition", "setting": "[25]", "value": "Dose-Dependent Effect"}, {"measurement": "Activity", "setting": "PC-12 [26]", "value": 76.8, "unit": "%"}]}
